Assay results: US20230355626A1, “INHIBITORS OF HUMAN IMMUNODEFICIENCY VIRUS REPLICATION” (VIIV HEALTHCARE UK (NO.5) LIMITED, priority 2020, published 2023)

Key:
recombinant NL4-3 virus = experiment: HIV cell culture assay (antiviral activity, luciferase readout in infected MT-2 cells); assay type: cell-based; conditions: Human immunodeficiency virus 1, NL43, MT2
Summary of the method: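 MT-2 cells infected for 4-5 days with 293T-derived NL4-3 reporter virus (nef partly replaced by Renilla luciferase) in serial compound dilutions. Live-cell luciferase read-out. EC50 from median effect equation fit.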

[1] = Compound cytotoxicity, XTT-based colorimetric assay; assay type: cell-based; conditions: human; uninfected MT2 cells, day 4, XTT assay
Summary of the method: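 Follows the antiviral assay procedure, but with uninfected MT2 cells. On day 4, cell viability is measured by XTT-based colorimetry, giving CC50 values.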

SMILES | EC50 (recombinant NL4-3 virus) | CC50 at 4 day [1]
Cn1nc(NS(C)(=O)=O)c2c(Cl)ccc(-n3c([C@H](Cc4cc(F)cc(F)c4)NC(=O)Cn4nc(C(F)F)c5c4C(F)(F)[C@@H]4C[C@H]54)nc4nc(OC5CC(F)(F)C5)ccc4c3=O)c21 (atropisomer, axis not shown; (P)) [Example 30, N-[(1S)-1-[(3P)-3-(4-chloro-3-methanesulfonamido-1-methyl-1H-indazol-7-yl)-7-(3,3-difluorocyclobutoxy)-4-oxo-3H,4H-pyrido[2,3-d]pyrimidin-2-yl]-2-(3,5-difluorophenyl)ethyl]-2-[(2S,4R)-9-(difluoromethyl)-5,5-difluoro-7,8-diazatricyclo[4.3.0.0^2,^4]nona-1(6),8-dien-7-yl]acetamide] | 0.031 nM | > 500 nM
Cn1nc(NS(C)(=O)=O)c2c(Cl)ccc(-n3c([C@H](Cc4cc(F)cc(F)c4)NC(=O)Cn4nc(C(F)F)c5c4C(F)(F)[C@@H]4C[C@H]54)nc4nc(OCC5CC(F)(F)C5)ccc4c3=O)c21 (atropisomer, axis not shown; (P)) [Example 31, N-((S)-1-((3P)-3-(4-chloro-1-methyl-3-(methylsulfonamido)-1H-indazol-7-yl)-7-((3,3-difluorocyclobutyl)methoxy)-4-oxo-3,4-dihydropyrido[2,3-d]pyrimidin-2-yl)-2-(3,5-difluorophenyl)ethyl)-2-((3bS,4aR)-3-(difluoromethyl)-5,5-difluoro-3b,4,4a,5-tetrahydro-1H-cyclopropa[3,4]cyclopenta[1,2-c]pyrazol-1-yl)acetamide] | 0.035 nM | > 100 nM
Cn1nc(NS(C)(=O)=O)c2c(Cl)ccc(-n3c([C@H](Cc4cc(F)cc(F)c4)NC(=O)Cn4nc(C(F)F)c5c4C(F)(F)[C@@H]4C[C@H]54)nc4nc(OC5CCC(F)(F)CC5)ccc4c3=O)c21 (atropisomer, axis not shown; (P)) [Example 35, N-((S)-1-((3P)-3-(4-chloro-1-methyl-3-(methylsulfonamido)-1H-indazol-7-yl)-7-((4,4-difluorocyclohexyl)oxy)-4-oxo-3,4-dihydropyrido[2,3-d]pyrimidin-2-yl)-2-(3,5-difluorophenyl)ethyl)-2-((3bS,4aR)-3-(difluoromethyl)-5,5-difluoro-3b,4,4a,5-tetrahydro-1H-cyclopropa[3,4]cyclopenta[1,2-c]pyrazol-1-yl)acetamide] | 0.054 nM | > 100 nM
Cn1nc(NS(C)(=O)=O)c2c(Cl)ccc(-n3c([C@H](Cc4cc(F)cc(F)c4)NC(=O)Cn4nc(C(F)F)c5c4C(F)(F)[C@@H]4C[C@H]54)nc4nc(Oc5ccc(F)cc5F)ccc4c3=O)c21 (atropisomer, axis not shown; (P)) [Example 36, N-((S)-1-((3P)-3-(4-chloro-1-methyl-3-(methylsulfonamido)-1H-indazol-7-yl)-7-(2,4-difluorophenoxy)-4-oxo-3,4-dihydropyrido[2,3-d]pyrimidin-2-yl)-2-(3,5-difluorophenyl)ethyl)-2-((3bS,4aR)-3-(difluoromethyl)-5,5-difluoro-3b,4,4a,5-tetrahydro-1H-cyclopropa[3,4]cyclopenta[1,2-c]pyrazol-1-yl)acetamide] | 0.081 nM | > 100 nM
Cn1nc(NS(C)(=O)=O)c2c(Cl)ccc(-n3c([C@H](Cc4cc(F)cc(F)c4)NC(=O)Cn4nc(C(F)F)c5c4C(F)(F)[C@@H]4C[C@H]54)nc4nc(Oc5ccccc5F)ccc4c3=O)c21 (atropisomer, axis not shown; (P)) [Example 37, N-((S)-1-((3P)-3-(4-chloro-1-methyl-3-(methylsulfonamido)-1H-indazol-7-yl)-7-(2-fluorophenoxy)-4-oxo-3,4-dihydropyrido[2,3-d]pyrimidin-2-yl)-2-(3,5-difluorophenyl)ethyl)-2-((3bS,4aR)-3-(difluoromethyl)-5,5-difluoro-3b,4,4a,5-tetrahydro-1H-cyclopropa[3,4]cyclopenta[1,2-c]pyrazol-1-yl)acetamide] | 0.081 nM | > 100 nM
Cn1nc(NS(C)(=O)=O)c2c(Cl)ccc(-n3c([C@H](Cc4cc(F)cc(F)c4)NC(=O)Cn4nc(C(F)F)c5c4C(F)(F)[C@@H]4C[C@H]54)nc4nc(OCC(F)(F)C(F)(F)C(F)(F)F)ccc4c3=O)c21 (atropisomer, axis not shown; (P)) [Example 39, N-((S)-1-((3P,3P)-3-(4-chloro-1-methyl-3-(methylsulfonamido)-1H-indazol-7-yl)-7-(2,2,3,3,4,4,4-heptafluorobutoxy)-4-oxo-3,4-dihydropyrido[2,3-d]pyrimidin-2-yl)-2-(3,5-difluorophenyl)ethyl)-2-((3bS,4aR)-3-(difluoromethyl)-5,5-difluoro-3b,4,4a,5-tetrahydro-1H-cyclopropa[3,4]cyclopenta[1,2-c]pyrazol-1-yl)acetamide] | 0.122 nM | > 100 nM
Cn1nc(NS(C)(=O)=O)c2c(Cl)ccc(-n3c([C@H](Cc4cc(F)cc(F)c4)NC(=O)Cn4nc(C(F)F)c5c4C(F)(F)[C@@H]4C[C@H]54)nc4nc(OCC(F)(F)C(F)(F)C(F)(F)C(F)(F)F)ccc4c3=O)c21 (atropisomer, axis not shown; (P)) [Example 40, N-((S)-1-((3P,3P)-3-(4-chloro-1-methyl-3-(methylsulfonamido)-1H-indazol-7-yl)-7-((2,2,3,3,4,4,5,5,5-nonafluoropentyl)oxy)-4-oxo-3,4-dihydropyrido[2,3-d]pyrimidin-2-yl)-2-(3,5-difluorophenyl)ethyl)-2-((3bS,4aR)-3-(difluoromethyl)-5,5-difluoro-3b,4,4a,5-tetrahydro-1H-cyclopropa[3,4]cyclopenta[1,2-c]pyrazol-1-yl)acetamide] | 0.31 nM | > 100 nM
Cn1nc(NS(C)(=O)=O)c2c(Cl)ccc(-n3c([C@H](Cc4cc(F)cc(F)c4)NC(=O)Cn4nc(C5CC5)c5c4C(F)(F)[C@@H]4C[C@H]54)nc4nc(OCC(F)(F)C(F)(F)F)ccc4c3=O)c21 (atropisomer, axis not shown; (P)) [Example 41, N-((S)-1-((3P, 3P)-3-(4-chloro-1-methyl-3-(methylsulfonamido)-1H-indazol-7-yl)-4-oxo-7-(2,2,3,3,3-pentafluoropropoxy)-3,4-dihydropyrido[2,3-d]pyrimidin-2-yl)-2-(3,5-difluorophenyl)ethyl)-2-((3bS,4aR)-3-cyclopropyl-5,5-difluoro-3b,4,4a,5-tetrahydro-1H-cyclopropa[3,4]cyclopenta[1,2-c]pyrazol-1-yl)acetamide] | 0.043 nM | > 100 nM
Cn1nc(NS(C)(=O)=O)c2c(Cl)ccc(-n3c([C@H](Cc4cc(F)cc(F)c4)NC(=O)Cn4nc(C(F)F)c5c4C(F)(F)[C@@H]4C[C@H]54)nc4nc(OCC5CC5(F)F)ccc4c3=O)c21 (stereo partly drawn) [Example 33, N-((1S)-1-((3P)-3-(4-chloro-1-methyl-3-(methylsulfonamido)-1H-indazol-7-yl)-7-((2,2-difluorocyclopropyl)methoxy)-4-oxo-3,4-dihydropyrido[2,3-d]pyrimidin-2-yl)-2-(3,5-difluorophenyl)ethyl)-2-((3bS,4aR)-3-(difluoromethyl)-5,5-difluoro-3b,4,4a,5-tetrahydro-1H-cyclopropa[3,4]cyclopenta[1,2-c]pyrazol-1-yl)acetamide] | 0.037 nM | > 100 nM
Cn1nc(NS(C)(=O)=O)c2c(Cl)ccc(-n3c([C@H](Cc4cc(F)cc(F)c4)NC(=O)Cn4nc(C(F)F)c5c4C(F)(F)[C@@H]4C[C@H]54)nc4nc(OCCOC5CC5(F)F)ccc4c3=O)c21 (stereo partly drawn) [Example 34, N-((1S)-1-((3P,3P)-3-(4-chloro-1-methyl-3-(methylsulfonamido)-1H-indazol-7-yl)-7-(2-(2,2-difluorocyclopropoxy)ethoxy)-4-oxo-3,4-dihydropyrido[2,3-d]pyrimidin-2-yl)-2-(3,5-difluorophenyl)ethyl)-2-((3bS,4aR)-3-(difluoromethyl)-5,5-difluoro-3b,4,4a,5-tetrahydro-1H-cyclopropa[3,4]cyclopenta[1,2-c]pyrazol-1-yl)acetamide] | 0.035 nM | > 100 nM
Cn1nc(NS(C)(=O)=O)c2c(Cl)ccc(-n3c([C@H](Cc4cc(F)cc(F)c4)NC(=O)Cn4nc(C(F)F)c5c4C(F)(F)[C@@H]4C[C@H]54)nc4nc(OCCC5CC5(F)F)ccc4c3=O)c21 (stereo partly drawn) [Example 38, N-((1S)-1-((3P,3P)-3-(4-chloro-1-methyl-3-(methylsulfonamido)-1H-indazol-7-yl)-7-(2-(2,2-difluorocyclopropyl)ethoxy)-4-oxo-3,4-dihydropyrido[2,3-d]pyrimidin-2-yl)-2-(3,5-difluorophenyl)ethyl)-2-((3bS,4aR)-3-(difluoromethyl)-5,5-difluoro-3b,4,4a,5-tetrahydro-1H-cyclopropa[3,4]cyclopenta[1,2-c]pyrazol-1-yl)acetamide] | 0.037 nM | > 100 nM
